In test [1] the test system is Cavia porcellus. As to the kind of experiment: In vivo inhibition of antigen induced increase in intranasal pressure in actively sensitized guinea pig after dose of 10 mg/kg. The format is functional. Conditions: for inhibition in vivo at 10 mg/kg: Cavia porcellus.
Test [2] has as its target T1, Prostaglandin D2 receptor (Homo sapiens, UniProt Q13258).
T1 sequence (Q13258 whole entry): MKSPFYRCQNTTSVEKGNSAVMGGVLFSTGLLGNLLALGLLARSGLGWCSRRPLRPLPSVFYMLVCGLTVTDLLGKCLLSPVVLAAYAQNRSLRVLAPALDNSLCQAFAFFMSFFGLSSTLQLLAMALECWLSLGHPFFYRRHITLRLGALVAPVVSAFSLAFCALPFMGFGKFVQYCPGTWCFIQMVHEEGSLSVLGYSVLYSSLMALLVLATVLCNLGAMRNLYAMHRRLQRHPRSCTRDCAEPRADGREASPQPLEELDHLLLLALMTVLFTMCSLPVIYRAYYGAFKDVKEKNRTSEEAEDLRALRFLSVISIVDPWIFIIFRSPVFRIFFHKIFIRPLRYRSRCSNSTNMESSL
The experiment in a line: In vitro inhibition of cAMP formation evoked by prostaglandin D2 receptor in human platelets. It counts as functional. Background: Changes in cAMP serve as a functional read-out for many G protein-coupled receptors.

Test [3] deals with T1, Prostaglandin D2 receptor. As to the kind of experiment: In vitro inhibition of [3H]- PGD-2 radioligand binding to prostaglandin D2 receptor on human platelet membrane.
For test [4], the system named is Cavia porcellus. As to the kind of experiment: Inhibition of increase in specific airway resistance by antigen inhalation in conscious guinea pig at a dose of 10 mg/kg administered perorally 1 hr before challenge in asthma model. The settings on record: route oral. It counts as functional.
The test system of test [5] is Cavia porcellus. As to the kind of experiment: In vivo inhibition of antigen induced increase in intranasal pressure in actively sensitized guinea pig after an intravenous dose of 1 mg/kg. It counts as functional.

Broadly, the inhibition in vivo is the relative decrease from the control value, in per cent. `O=C(O)CCC/C=C\C[C@@H]1[C@H]2CC[C@H](C2)[C@H]1NS(=O)(=O)c1ccc2oc3ccccc3c2c1`: in the test with Cavia porcellus [1], the inhibition in vivo at 10 mg/kg amounted to 75%.

By IC50 is commonly meant the concentration that gives 50% inhibition. Consider `CC(C)(C)c1ccc(S(=O)(=O)N[C@@H]2[C@@H]3CC[C@@H](C3)[C@H]2C/C=C\CCCC(=O)O)cc1`, for which the IC50 in test [2] was 720 nM; in test [3], more than 10000 nM.

What is called Inhibition is the share of the control response that was lost under treatment. Turning to `COc1cc2c(cc1S(=O)(=O)N[C@@H]1[C@@H]3CC[C@@H](C3)[C@H]1C/C=C\CCCC(=O)O)oc1ccccc12`, the IC50 in test [2] was determined as 52 nM; in test [3] it was 24 nM. Further, in the test with Cavia porcellus [1] (10 mg/kg), the Inhibition came out at 82%. For the same molecule, the inhibition in vivo at 10 mg/kg in the test with Cavia porcellus [1] was 81%; in the test on Cavia porcellus [4] it was 42%.

Take `COc1ccc(-c2cc3ccc(S(=O)(=O)N[C@@H]4[C@@H]5CC[C@@H](C5)[C@H]4C/C=C\CCCC(=O)O)cc3[nH]2)cc1`: the half-maximal inhibitory concentration (IC50) in test [2] was 45 nM; in test [3] it was 15 nM. The inhibition in vivo at 1 mg/kg with Cavia porcellus [5] was found to be 40%.

Turning to `O=C(O)CCC/C=C\C[C@@H]1[C@H]2CC[C@H](C2)[C@H]1NS(=O)(=O)c1ccc2[nH]c3ccccc3c2c1`, the IC50 in test [2] and in test [3] was 22 nM in each case. In addition, the inhibition in vivo at 1 mg/kg in the test with Cavia porcellus [5] was -9%.

As to `O=C(O)CCC/C=C\C[C@@H]1[C@H]2CC[C@H](C2)[C@H]1NS(=O)(=O)c1ccc2sc3ccccc3c2c1`, the figures for the IC50 in test [2] and in test [3] were 180 nM and 64 nM, respectively. Besides, in the test on Cavia porcellus [5], the inhibition in vivo at 1 mg/kg was 31%.

Regarding `O=C(O)CCC/C=C\C[C@@H]1[C@H]2CC[C@H](C2)[C@H]1NS(=O)(=O)c1ccc2cc(-c3ccc(O)cc3)[nH]c2c1`, the IC50 came out at 25 nM in test [2] and 18 nM in test [3]. For the same molecule, in the test with Cavia porcellus [5], the inhibition in vivo at 1 mg/kg came to 42%.

Take `O=C(O)CCC/C=C\C[C@@H]1[C@H]2CC[C@H](C2)[C@H]1NS(=O)(=O)c1ccccc1Br`: the results for the IC50 in test [2] and in test [3] were 340 nM and 5300 nM, respectively.

In the case of `CCOc1cc2c(cc1S(=O)(=O)N[C@@H]1[C@@H]3CC[C@@H](C3)[C@H]1C/C=C\CCCC(=O)O)oc1ccccc12`, the figures for the IC50 in test [2] and in test [3] were 34 nM and 32 nM, respectively. Moreover, the inhibition in vivo at 10 mg/kg in the test with Cavia porcellus [1] was found to be 53%.

In the case of `O=C(O)CCC/C=C\C[C@@H]1[C@H]2CC[C@H](C2)[C@H]1NS(=O)(=O)c1ccc(C#Cc2ccccc2)cc1`, the IC50 in test [2] is 210 nM; in test [3], 8.5 nM.

For the origin of these results see ChEMBL document CHEMBL1145791, “Synthesis and biological activity of various derivatives of a novel class of potent, selective, and orally active prostaglandin D2 receptor antagonists. 1. Bicyclo[2.2.1]heptane derivatives” (J Med Chem, 2003).
